Data: patent US12565504B2, “Spirocyclic O-glycoprotein-2-acetamido-2-deoxy-3-d-glucopyranosidase inhibitors” (BIOGEN MA INC., priority 2019, dated 2026)
Read-outs that look alike come from different tables or passages of the source.

Key:
[1] = biological target: Recombinant full length human OGA enzyme (Homo sapiens (Human), UniProt O60502); assay: OGA Enzyme Inhibition Biochemical Assay; details: 1 nM OGA, 100 μM 4-MUGlcNAc, 90 minutes, pH 6.4
Method in brief: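 Full-length recombinant human OGA with fluorogenic 4-MUGlcNAc in McIlvaine buffer pH 6.4, 0.01% BSA; 90 min at room temperature, glycine pH 10 quench, fluorescence Ex 355/Em 460 nm. 10-point, 4-fold dilution from 20 μM; 4-parameter variable-slope fit.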

OGA (S400 O-GLCNAC) = OGA (S400 O-GLCNAC) (Homo sapiens (Human), UniProt O60502); assay: Cellular OGA-Tau MSD Assay; type: cell-based; details: HEK-293T cells transfected with OGT and Tau-V5; Tau-S400-GlcNAc MSD readout
Method in brief: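 HEK-293T cells transiently co-expressing OGT and Tau-V5 were treated overnight at 37° C with compounds (top 1 uM, 3-fold, 10 points). Lysate Tau was captured on V5 antibody, and S400-GlcNAc was detected by MSD electrochemiluminescence. IC50 was derived from a 4-parameter fit of normalized % activity.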

P-gp (MDR1) = assay: MDR1-MDCK Efflux Ratio Assay; type: in vitro ADME; details: dog, MDR1-MDCK cells, pH 7.4, read-out: MDR1-MDCK Efflux Ratio (B-A/A-B)
Protocol: MDR1-MDCK cell monolayers were grown to confluence on microporous polyester membranes in 96-well Corning insert plates. The permeability assay buffer was Hanks' Balanced Salt Solution containing 10 mM HEPES at pH of 7.4. Loperamide (1 μM) was used as a positive control P-gp substrate. Propranolol and Bestatin (1 μM) were used as high and low permeability comparators, respectively.
Test compounds or positive control P-gp substrate/permeability comprators were added to respective apical and basolateral chambers for bidirectional assessment of permeability. Receiver buffer (transport buffer supplemented with 1% bovine serum albumin) was added to respective receiver chambers. MDR1-MDCK cells were incubated with test compounds at 37° C. with 5% CO2 for 2 hr. Samples were collected from the donor chamber at both 0 and 120 minutes, and from the receiver chamber at 120 minutes. Test and control compound concentrations were determined using LC-MS/MS analysis. Each determination was performed in triplicate.

[2] = Rat Liver Microsome Stability Assay; details: rat liver microsomes 0.5 mg/mL, compound 1 μM; Qh 55 mL/minute/kg
Protocol: (§1) Aliquots (40 uL) at 0, 5, 10, 15, 25 and 40 minutes post NADPH addition (or compound addition for reactions in absence of NADPH) were transferred into individual 96-well plate wells containing 40 ng/ml of 8-cyclopently-1,3-dipropylxanthine (CPDPX, internal standard) in 160 uL acetonitrile:methanol (1:1 v/v).
(§2) The LC/MS/MS system consisted of an ultra high throughput RapidFire® 300 system (Agilent Technologies, Santa Clara, CA) coupled to a Triple Quad 5500 mass spectrometer (ABSciex, Foster City, CA). Sample load and wash were performed on a RapidFire® C4 cartridge using 0.1% formic acid in water as mobile phase A and sample elution using 0.1% formic acid in acetonitrile:methanol (1:1 v/v) as mobile phase B.
(§3) CLint, app (apparent intrinsic clearance) was calculated using the following equation for microsome stability.
(§4) [formula] • where “a” represents 45 grams of liver/kg of body weight for rat. • CLint,app (apparent intrinsic clearance) was calculated using the following equation for hepatocyte stability: • CLhep (hepatic clearance) was calculated using the following equation for microsomes
(§5) [formula] • using 55 mL/minute/kg as Qh (hepatic blood flow) for rat.

[3] = rat, microsomes, 1 μM, pH 7.4
Protocol: as §1, §2, §3, §4, §5

OGA (S400 O-GLCNAC), sequence (O60502 whole entry): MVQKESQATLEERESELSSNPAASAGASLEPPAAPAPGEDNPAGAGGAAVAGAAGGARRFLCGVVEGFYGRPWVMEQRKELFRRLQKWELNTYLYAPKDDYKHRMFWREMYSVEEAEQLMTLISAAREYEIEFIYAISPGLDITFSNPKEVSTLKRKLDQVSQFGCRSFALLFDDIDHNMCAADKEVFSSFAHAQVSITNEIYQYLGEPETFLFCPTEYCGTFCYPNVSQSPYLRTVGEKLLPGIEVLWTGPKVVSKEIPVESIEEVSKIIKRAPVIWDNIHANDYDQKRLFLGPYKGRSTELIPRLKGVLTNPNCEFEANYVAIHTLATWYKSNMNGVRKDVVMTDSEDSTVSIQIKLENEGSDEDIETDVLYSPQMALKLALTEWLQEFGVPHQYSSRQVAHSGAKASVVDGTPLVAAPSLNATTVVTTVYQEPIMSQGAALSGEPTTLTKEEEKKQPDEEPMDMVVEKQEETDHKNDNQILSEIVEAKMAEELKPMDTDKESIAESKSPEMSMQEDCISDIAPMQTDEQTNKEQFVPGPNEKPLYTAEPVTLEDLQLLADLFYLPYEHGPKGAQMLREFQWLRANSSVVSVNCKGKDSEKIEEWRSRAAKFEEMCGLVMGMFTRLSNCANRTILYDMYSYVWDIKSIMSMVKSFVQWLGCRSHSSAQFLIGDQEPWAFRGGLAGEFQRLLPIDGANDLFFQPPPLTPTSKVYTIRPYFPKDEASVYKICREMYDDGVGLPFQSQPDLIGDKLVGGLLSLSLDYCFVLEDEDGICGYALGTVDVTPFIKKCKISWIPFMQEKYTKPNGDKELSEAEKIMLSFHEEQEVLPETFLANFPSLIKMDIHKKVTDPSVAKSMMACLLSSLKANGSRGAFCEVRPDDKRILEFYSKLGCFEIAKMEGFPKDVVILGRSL
Recombinant full length human OGA enzyme, sequence (O60502 whole entry): as above

Row | Structure (SMILES) | IC50 [1] [nM] | IC50 (OGA (S400 O-GLCNAC)) [nM] | efflux ratio at 2 hr (P-gp (MDR1)) | RLM % Qh (%) [2] [%] | RLM % Qh (%) [3] [%]
1 | CC(=O)Nc1nc(F)c(CN2C[C@@]3(Cc4cc(N5CCOCC5)ncc4O3)C[C@@H]2C)s1 [Example 36, N-(4-Fluoro-5-(((2R,5′S)-5′-methyl-5-morpholino-3H-spiro[furo[2,3-c]pyridine-2,3′-pyrrolidin]-1′-yl)methyl)thiazol-2-yl)acetamide] | < 1 | 8 | 9.3 | 51 | –
2 | COc1cc2c(cn1)[C@]1(C[C@H](C)N(Cc3cnc(NC(C)=O)s3)C1)OC2 (single isomer, unassigned) [Example 76-a] | 55 | 62 | 17.7 | 58 | –
3 | CC(=O)Nc1nc(F)c(CN2C[C@@]3(Cc4cc(N5C[C@@H](C)O[C@H](C)C5)ncc4O3)C[C@@H]2C)s1 [Example 41, N-(5-(((2R,5′S)-5-((2R,6R)-2,6-Dimethylmorpholino)-5′-methyl-3H-spiro[furo[2,3-c]pyridine-2,3′-pyrrolidin]-1′-yl)methyl)-4-fluorothiazol-2-yl)acetamide] | < 1 | 8 | 19.5 | 65 | –
4 | COCCN(C)c1cc2c(cn1)O[C@]1(C2)C[C@H](C)N(Cc2sc(NC(C)=O)nc2F)C1 [Example 33, N-(4-Fluoro-5-(((2R,5′S)-5-((2-methoxyethyl)(methyl)amino)-5′-methyl-3H-spiro[furo[2,3-c]pyridine-2,3′-pyrrolidin]-1′-yl)methyl)thiazol-2-yl)acetamide] | < 1 | 2 | 22 | 82 | –
5 | CC(=O)Nc1ncc(CN2C[C@@]3(Cc4cc(N5C[C@@H](C)O[C@@H](C)C5)ncc4O3)C[C@@H]2C)s1 [Example 38, N-(5-(((2R,5′S)-5-((2R,6S)-2,6-Dimethylmorpholino)-5′-methyl-3H-spiro[furo[2,3-c]pyridine-2,3′-pyrrolidin]-1′-yl)methyl)thiazol-2-yl)acetamide] | 1.2 | 9.9 | 29.5 | 42 | –
6 | CC(=O)Nc1nc(F)c(CN2C[C@@]3(Cc4ncccc4O3)C[C@@H]2C)s1 (single isomer, unassigned) [Example 19-a] | 1 | 5 | 14 | 62 | –
7 | COc1nccc2c1COC21CCCN(Cc2cnc(NC(C)=O)s2)C1 (centres unmarked) [Example 82, N-(5-((4-Methoxy-3H-spiro[furo[3,4-c]pyridine-1,3′-piperidin]-1′-yl)methyl)thiazol-2-yl)acetamide] | 1.6 | 126 | 4.4 | 78 | –
8 | CC(=O)Nc1ncc(CN2CCCC3(C2)OCc2ccncc23)s1 (centres unmarked) [Example 74, N-(5-((1H-Spiro[furo[3,4-c]pyridine-3,3′-piperidin]-1′-yl)methyl)thiazol-2-yl)acetamide] | 13 | 22.6 | 36.5 | 75 | –
9 | CC(=O)Nc1nc(F)c(CN2C[C@@]3(Cc4cc(=O)n(C)cc4O3)C[C@@H]2C)s1 [Example 48, N-(5-(((2R,5′S)-5′,6-Dimethyl-5-oxo-5,6-dihydro-3H-spiro[furo[2,3-c]pyridine-2,3′-pyrrolidin]-1′-yl)methyl)-4-fluorothiazol-2-yl)acetamide] | 1.4 | 34 | 12 | 16 | –
10 | CNc1cc2c(cn1)O[C@]1(C2)C[C@H](C)N(Cc2sc(NC(C)=O)nc2F)C1 [Example 29, N-(4-Fluoro-5-(((2R,5′S)-5′-methyl-5-(methylamino)-3H-spiro[furo[2,3-c]pyridine-2,3′-pyrrolidin]-1′-yl)methyl)thiazol-2-yl)acetamide] | < 1 | 3 | 17.7 | 55 | –
11 | CC(=O)Nc1nc(F)c(CN2CCC3(Cc4ncccc4O3)C2)s1 (centres unmarked) [Example 91, N-(5-((3H-spiro[furo[3,2-b]pyridine-2,3′-pyrrolidin]-1′-yl)methyl)-4-fluorothiazol-2-yl)acetamide] | 70 | – | – | – | 45
12 | CC(=O)Nc1ncc(CN2C[C@@]3(Cc4cc(N5C[C@@H](C)O[C@H](C)C5)ncc4O3)C[C@@H]2C)s1 [Example 40, N-(5-(((2R,5′S)-5-((2R,6R)-2,6-Dimethylmorpholino)-5′-methyl-3H-spiro[furo[2,3-c]pyridine-2,3′-pyrrolidin]-1′-yl)methyl)thiazol-2-yl)acetamide] | 1.5 | 14 | 27 | 54 | –
13 | COCCOc1cc2c(cn1)O[C@]1(C2)C[C@H](C)N(Cc2sc(NC(C)=O)nc2F)C1 [Example 47, N-(4-Fluoro-5-(((2R,5′S)-5-(2-methoxyethoxy)-5′-methyl-3H-spiro[furo[2,3-c]pyridine-2,3′-pyrrolidin]-1′-yl)methyl)thiazol-2-yl)acetamide] | < 1 | 9 | 9.2 | 53 | –
14 | CC(=O)Nc1nc(F)c(CN2CCCC3(C2)OCc2c3cc[nH]c2=O)s1 (centres unmarked) [Example 86, N-(4-Fluoro-5-((4-oxo-4,5-dihydro-3H-spiro[furo[3,4-c]pyridine-1,3′-piperidin]-1′-yl)methyl)thiazol-2-yl)acetamide] | 14.5 | 138 | 32.6 | 37 | –
15 | CC(=O)Nc1ncc(CN2CC3(C[C@@H]2C)OCc2ccccc23)s1 (stereo partly drawn) [Example 59, N-(5-(((5′S)-5′-Methyl-3H-spiro[isobenzofuran-1,3′-pyrrolidin]-1′-yl)methyl)thiazol-2-yl)acetamide] | 9 | 16 | 3.5 | 94 | –
16 | CC(=O)Nc1nc(F)c(CN2CC3(C[C@@H]2C)OCc2cccnc23)s1 (stereo partly drawn) [Example 63, N-(4-Fluoro-5-(((5′S)-5′-methyl-5H-spiro[furo[3,4-b]pyridine-7,3′-pyrrolidin]-1′-yl)methyl)thiazol-2-yl)acetamide] | 13 | 57 | 26 | 78 | –
17 | CC(=O)Nc1ncc(CN2CCC3(Cc4cnc(Cl)cc4O3)C2)s1 (centres unmarked) [Example 8, N-(5-((6-Chloro-3H-spiro[furo[3,2-c]pyridine-2,3′-pyrrolidin]-1′-yl)methyl)thiazol-2-yl)acetamide] | 74 | 654 | 9.4 | 47 | –
18 | CC(=O)Nc1ncc(CN2C[C@@]3(Cc4cc(C(F)(F)F)ncc4O3)C[C@@H]2C)s1 [Example 22, N-(5-(((2R,5′S)-5′-Methyl-5-(trifluoromethyl)-3H-spiro[furo[2,3-c]pyridine-2,3′-pyrrolidin]-1′-yl)methyl)thiazol-2-yl)acetamide] | 17 | 25 | 11 | 39 | –
19 | CC(=O)Nc1ncc(CN2C[C@@]3(Cc4cc(N5C[C@H](C)O[C@@H](C)C5)ncc4O3)C[C@@H]2C)s1 [Example 42, N-(5-(((2R,5′S)-5-((2S,6S)-2,6-Dimethylmorpholino)-5′-methyl-3H-spiro[furo[2,3-c]pyridine-2,3′-pyrrolidin]-1′-yl)methyl)thiazol-2-yl)acetamide] | 1.9 | 14 | 25 | 66 | –
